From BindingDB's records for doi:10.1124/jpet.102.035899 (University of Miami, 2002) come the findings set out here.

Experiment [1] deals with neuronal acetylcholine receptor subunit alpha-2 (Xenopus tropicalis, UniProt A0A6I8T284).
The target of experiment [2] is cholinergic receptor, nicotinic, alpha 1 (Muscle) isoform X1 (Xenopus sp., UniProt F6RLM5).
For experiment [3], the target named is neuronal acetylcholine receptor subunit alpha-4 (Xenopus sp., UniProt A9JRM3).
In experiment [4] the target is Cholinergic receptor nicotinic alpha 5 subunit (Xenopus sp., UniProt F7ELS1).
Sequence of Cholinergic receptor nicotinic alpha 5 subunit (F7ELS1 whole entry): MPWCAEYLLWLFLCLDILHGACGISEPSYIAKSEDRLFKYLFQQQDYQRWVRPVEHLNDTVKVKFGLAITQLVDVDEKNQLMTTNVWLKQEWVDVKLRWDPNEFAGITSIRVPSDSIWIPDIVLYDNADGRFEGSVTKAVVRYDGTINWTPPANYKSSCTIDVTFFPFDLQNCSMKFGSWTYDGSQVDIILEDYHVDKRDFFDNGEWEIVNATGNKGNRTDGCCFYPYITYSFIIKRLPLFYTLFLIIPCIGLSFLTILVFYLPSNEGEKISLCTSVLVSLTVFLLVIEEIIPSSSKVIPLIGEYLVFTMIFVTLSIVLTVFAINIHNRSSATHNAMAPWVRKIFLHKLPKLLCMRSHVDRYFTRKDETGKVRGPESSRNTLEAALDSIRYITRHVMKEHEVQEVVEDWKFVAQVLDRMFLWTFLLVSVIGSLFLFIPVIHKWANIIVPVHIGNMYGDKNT
For experiment [5], the target named is Cholinergic receptor, nicotinic alpha 1 (Xenopus sp., UniProt F6RLA9).
Sequence of Cholinergic receptor, nicotinic alpha 1 (F6RLA9 whole entry): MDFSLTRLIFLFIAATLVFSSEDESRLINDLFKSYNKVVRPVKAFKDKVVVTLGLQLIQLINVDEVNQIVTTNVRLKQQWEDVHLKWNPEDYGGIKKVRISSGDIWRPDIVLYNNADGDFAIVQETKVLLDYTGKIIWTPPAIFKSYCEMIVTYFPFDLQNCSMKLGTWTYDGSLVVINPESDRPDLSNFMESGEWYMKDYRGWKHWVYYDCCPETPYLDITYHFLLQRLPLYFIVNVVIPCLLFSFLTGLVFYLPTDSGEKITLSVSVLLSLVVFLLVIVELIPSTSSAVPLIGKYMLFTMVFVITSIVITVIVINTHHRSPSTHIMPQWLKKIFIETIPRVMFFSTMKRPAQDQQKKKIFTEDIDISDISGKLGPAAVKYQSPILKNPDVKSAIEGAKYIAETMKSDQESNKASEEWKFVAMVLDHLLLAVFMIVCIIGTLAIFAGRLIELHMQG

Molecules are shown by their SMILES. Several values for one entry are separate records, joined by “and”; a condition that tells them apart may be missing. Identical values can stand only once.

Sequence of cholinergic receptor, nicotinic, alpha 1 (Muscle) isoform X1 (F6RLM5 whole entry, canonical isoform): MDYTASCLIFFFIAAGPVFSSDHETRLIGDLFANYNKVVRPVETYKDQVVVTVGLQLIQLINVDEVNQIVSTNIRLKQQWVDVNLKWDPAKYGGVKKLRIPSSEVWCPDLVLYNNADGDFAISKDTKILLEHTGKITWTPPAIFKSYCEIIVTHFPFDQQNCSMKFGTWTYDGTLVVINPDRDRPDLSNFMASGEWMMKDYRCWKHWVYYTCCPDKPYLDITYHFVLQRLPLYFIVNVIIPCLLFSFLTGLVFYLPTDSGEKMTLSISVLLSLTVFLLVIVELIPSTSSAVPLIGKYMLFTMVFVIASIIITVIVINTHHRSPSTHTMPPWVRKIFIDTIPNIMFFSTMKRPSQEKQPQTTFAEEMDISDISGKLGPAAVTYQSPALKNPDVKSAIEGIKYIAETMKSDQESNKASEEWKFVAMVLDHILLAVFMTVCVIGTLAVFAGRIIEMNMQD
Sequence of neuronal acetylcholine receptor subunit alpha-4 (A9JRM3 whole entry): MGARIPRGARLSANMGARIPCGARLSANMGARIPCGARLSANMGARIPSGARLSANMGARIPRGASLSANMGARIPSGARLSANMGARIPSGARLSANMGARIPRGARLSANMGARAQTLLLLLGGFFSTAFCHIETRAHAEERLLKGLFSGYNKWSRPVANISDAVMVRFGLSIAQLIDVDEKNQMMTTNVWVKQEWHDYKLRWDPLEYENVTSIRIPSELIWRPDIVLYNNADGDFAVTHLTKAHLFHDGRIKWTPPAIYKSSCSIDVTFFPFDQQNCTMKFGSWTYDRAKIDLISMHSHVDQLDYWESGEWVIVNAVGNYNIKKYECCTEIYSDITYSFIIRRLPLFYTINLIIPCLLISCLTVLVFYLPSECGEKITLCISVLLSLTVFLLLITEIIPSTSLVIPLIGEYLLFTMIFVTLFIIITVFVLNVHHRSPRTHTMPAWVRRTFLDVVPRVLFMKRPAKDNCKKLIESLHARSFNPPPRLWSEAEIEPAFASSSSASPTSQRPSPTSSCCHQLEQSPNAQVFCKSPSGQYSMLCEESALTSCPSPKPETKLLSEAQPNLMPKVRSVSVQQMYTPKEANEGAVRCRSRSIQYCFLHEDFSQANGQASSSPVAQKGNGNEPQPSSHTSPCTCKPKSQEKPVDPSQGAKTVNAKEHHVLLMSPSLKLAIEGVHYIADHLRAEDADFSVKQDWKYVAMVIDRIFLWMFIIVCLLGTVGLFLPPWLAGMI
Sequence of neuronal acetylcholine receptor subunit alpha-2 (A0A6I8T284 whole entry, canonical isoform): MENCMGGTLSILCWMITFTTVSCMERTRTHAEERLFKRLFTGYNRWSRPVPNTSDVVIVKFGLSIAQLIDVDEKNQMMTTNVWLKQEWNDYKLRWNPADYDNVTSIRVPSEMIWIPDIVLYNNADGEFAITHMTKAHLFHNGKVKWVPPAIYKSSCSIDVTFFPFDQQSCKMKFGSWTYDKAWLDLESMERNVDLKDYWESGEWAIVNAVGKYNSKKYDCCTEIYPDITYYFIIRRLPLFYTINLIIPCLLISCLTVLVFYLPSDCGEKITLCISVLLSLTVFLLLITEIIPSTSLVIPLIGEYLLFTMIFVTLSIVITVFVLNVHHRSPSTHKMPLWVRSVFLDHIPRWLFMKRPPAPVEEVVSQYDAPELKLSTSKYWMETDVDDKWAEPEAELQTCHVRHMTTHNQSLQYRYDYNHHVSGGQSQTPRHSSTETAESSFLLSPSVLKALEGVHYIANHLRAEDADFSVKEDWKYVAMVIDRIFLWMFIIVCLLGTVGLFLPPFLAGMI

For `O=c1ccc([C@H]2CC3CCC2N3)c[nH]1` (some centres not stated), the Ki in experiment [1], in experiment [2] and in experiment [3] was 100 nM throughout.
`Clc1ccc([C@H]2CC3CCC2N3)cn1` (stereo partly drawn) [2-(6-Chloro-pyridin-3-yl)-7-aza-bicyclo[2.2.1]heptane(+/-) epibatidine] came in with a Ki in experiment [1] of 87 nM.
Turning to `Brc1ccc([C@H]2CC3CCC2N3)cn1` (some centres not stated) [NBEP], the Ki was 0.013 nM and 0.055 nM in experiment [1]; 0.004 nM in experiment [2]; 0.22 nM in experiment [4]; 0.01 nM in experiment [3]; 0.044 nM in experiment [5].
As for `CN(C)c1ccc([C@H]2CC3CCC2N3)cn1` (some centres not stated) [NDMNEP], the inhibitory constant (Ki) in experiment [1], in experiment [2] and in experiment [3] was 100 nM throughout.
`c1cncc([C@H]2CC3CCC2N3)c1` (some centres not stated) [NEP]: the Ki worked out at 0.0031 nM in experiment [2], 11 nM in experiment [4], 0.0085 nM in experiment [3] and 3.2 nM in experiment [5].
The like results for `Fc1ccc([C@H]2CC3CCC2N3)cn1` (some centres not stated) [NFEP] were, in that order, 0.0038 nM, 2.1 nM, 0.0092 nM and 0.48 nM.
The like results for `Nc1ccc([C@H]2CC3CCC2N3)cn1` (some centres not stated) [NNEP] were, in that order, 0.077 nM, 7.2 nM, 0.35 nM and 4.3 nM.
Regarding `O=S(=O)(Oc1ccc([C@H]2CC3CCC2N3)cn1)C(F)(F)F` (some centres not stated) [NTEP], the inhibition constant Ki in experiment [1] was found to be 10 nM; in experiment [2] it was 100 nM; in experiment [3] it was 100 nM.

As a reminder, the Ki is the dissociation constant of the complex between target and ligand, obtained from inhibition or displacement.
